# Results reported in the supplement of paper PMC10307832.
# Compound: CCCS(=O)(=O)Nc1ccc(F)c(C(=O)c2c[nH]c3ncc(-c4ccc(Cl)cc4)cc23)c1F [Vemurafenib] + O=C(c1cc(Cc2n[nH]c(=O)c3ccccc23)ccc1F)N1CCN(C(=O)C2CC2)CC1 [Olaparib] (partner 8 µM)
# Assay: relative viability (nuclei count vs DMSO), 5 days (fraction); higher = more cells survive
# Details: first compound 0.03162 µM
# Summary of the method: (§1)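 After 5 days of treatment, lung cancer cells in 1536-well plates were fixed and stained in a single step (final 0.05% Triton X-100, 1% formaldehyde, 1 ug/ml Hoechst) and their nuclei counted on 4× images. Treatment had been applied by pin tool the day after seeding as one drug alone or as a fixed anchor-drug dose with five library-drug doses (not always all listed) in √10 steps. Relative viability is the nuclei count of treated wells divided by that of vehicle wells, and values are medians of duplicate plates.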
row,Cell Line,relative viability
1,EBC-1,0.451
2,NCI-H2228,0.639
3,NCI-H23,0.309
4,HCC-827,0.624
5,NCI-H2347,0.495
6,A549,0.315
7,IA-LM,0.67
8,LXF-289,1.02
9,NCI-H1666,0.715
10,RERF-LC-KJ,0.842
11,NCI-H650,0.385
12,NCI-H322M,0.728
13,NCI-H596,0.742
14,201T,0.828

# Same assay, conditions: first compound 0.1 µM
row,Cell Line,relative viability
1,NCI-H1734,0.62
2,LCLC-103H,0.71
3,Calu-6,0.593
4,LU99A,0.259
5,NCI-H460,0.408
6,SK-LU-1,0.418
7,COR-L23,0.353
8,HCC-15,0.669
9,EMC-BAC-2,0.528
10,NCI-H1395,0.506
11,LC-2-ad,0.645
12,NCI-H2085,0.791
13,NCI-H727,0.774
14,NCI-H647,0.469
15,HARA,0.289
16,NCI-H3122,0.647

row,Cell Line,relative viability
1,NCI-H358,0.745
2,CAL-12T,0.663
3,LCLC-97TM1,0.416
4,NCI-H520,0.337
5,EBC-1,0.657
6,NCI-H2228,0.87
7,NCI-H23,0.326
8,NCI-H2347,0.493
9,A549,0.323
10,IA-LM,0.818
11,LXF-289,1.06
12,NCI-H1666,0.77
13,RERF-LC-KJ,0.944
14,NCI-H650,0.368
15,NCI-H596,0.657
16,201T,0.806

# Same assay, conditions: first compound 0.3162 µM
row,Cell Line,relative viability
1,NCI-H1734,0.611
2,LCLC-103H,0.742
3,Calu-6,0.549
4,SK-LU-1,0.393
5,COR-L23,0.298
6,HCC-15,0.606
7,NCI-H1944,0.384
8,EMC-BAC-2,0.352
9,NCI-H1395,0.429
10,LC-2-ad,0.763
11,NCI-H2085,0.632
12,NCI-H727,0.726
13,NCI-H647,0.513
14,HARA,0.899
15,NCI-H3122,0.606
16,NCI-H358,0.625
17,CAL-12T,0.83

row,Cell Line,relative viability
1,COR-L 105,0.742
2,LCLC-97TM1,0.353
3,NCI-H520,0.364
4,EBC-1,0.723
5,NCI-H2228,0.611
6,NCI-H23,0.295
7,HCC-827,0.65
8,NCI-H2347,0.547
9,A549,0.186
10,IA-LM,0.78
11,LXF-289,1.09
12,NCI-H1666,0.769
13,RERF-LC-KJ,0.923
14,NCI-H650,0.305
15,NCI-H322M,0.93
16,NCI-H596,0.63
17,201T,0.86

# Same assay, conditions: first compound 1 µM
row,Cell Line,relative viability
1,NCI-H1734,0.615
2,LCLC-103H,0.797
3,Calu-6,0.471
4,LU99A,0.264
5,NCI-H460,0.39
6,SK-LU-1,0.392
7,COR-L23,0.341
8,HCC-15,0.522
9,NCI-H1944,0.359
10,EMC-BAC-2,0.369
11,NCI-H1395,0.482
12,LC-2-ad,0.69
13,NCI-H2085,0.858
14,NCI-H727,0.51
15,NCI-H647,0.634
16,HARA,0.942
17,NCI-H3122,0.597
18,NCI-H358,0.521

row,Cell Line,relative viability
1,CAL-12T,0.829
2,COR-L 105,0.734
3,LCLC-97TM1,0.269
4,NCI-H520,0.359
5,EBC-1,0.649
6,NCI-H2228,0.6
7,NCI-H23,0.343
8,HCC-827,0.632
9,NCI-H2347,0.588
10,A549,0.249
11,IA-LM,0.721
12,LXF-289,1
13,NCI-H1666,0.782
14,RERF-LC-KJ,1.06
15,NCI-H650,0.378
16,NCI-H322M,0.726
17,NCI-H596,0.719
18,201T,0.828

# Compound: Cc1nc(NC(=O)N2CCC[C@H]2C(N)=O)sc1-c1ccnc(C(C)(C)C(F)(F)F)c1 [Alpelisib] + COc1cc2c(Oc3ccc(NC(=O)C4(C(=O)Nc5ccc(F)cc5)CC4)cc3F)ccnc2cc1OCCCN1CCOCC1 [Foretinib] (partner 0.25 µM)
# Assay: as above
# Details: first compound 0.04 µM
# Summary of the method: as §1
row,Cell Line,relative viability
1,NCI-H1734,0.749
2,LCLC-103H,0.67
3,Calu-6,0.926
4,LU99A,0.746
5,NCI-H460,0.998
6,SK-LU-1,0.831
7,COR-L23,1.01
8,HCC-15,0.982
9,NCI-H1944,0.786
10,EMC-BAC-2,0.973
11,NCI-H1395,0.889
12,LC-2-ad,0.863
13,NCI-H2085,0.93
14,NCI-H727,0.897
15,NCI-H647,1.12
16,HARA,0.914
17,NCI-H3122,1.02
18,NCI-H358,0.622

row,Cell Line,relative viability
1,CAL-12T,1.08
2,COR-L 105,1.08
3,LCLC-97TM1,0.879
4,NCI-H520,0.682
5,EBC-1,0.101
6,NCI-H2228,0.82
7,NCI-H23,0.859
8,HCC-827,1
9,NCI-H2347,0.777
10,A549,0.926
11,IA-LM,1.03
12,LXF-289,0.951
13,NCI-H1666,1
14,RERF-LC-KJ,0.779
15,NCI-H650,1.03
16,NCI-H322M,0.909
17,NCI-H596,0.769
18,201T,1.11

# Same assay, conditions: first compound 0.1265 µM
row,Cell Line,relative viability
1,LCLC-103H,0.758
2,Calu-6,0.842
3,LU99A,0.832
4,NCI-H460,1.02
5,SK-LU-1,0.796
6,COR-L23,0.933
